# Measurements from ChEMBL document CHEMBL5303573, “Mapping human microbiome drug metabolism by gut bacteria and their genes” (Nature, 2019).
# Experiments:
# [1] = The drug is tested on Eggerthella lenta strain: ATCC25559 for biotransformation. The drug concentrations were measured before and after a 12-h incubation by liquid-chromatography-coupled mass spectrometry (LC–MS); details: 2 µM
# [2] = The drug is tested on Alistipes indistinctus strain: DSM22520 for biotransformation. The drug concentrations were measured before and after a 12-h incubation by liquid-chromatography-coupled mass spectrometry (LC–MS); details: 2 µM
# [3] = The drug is tested on Odoribacter splanchnicus strain: fecal isolate for biotransformation. The drug concentrations were measured before and after a 12-h incubation by liquid-chromatography-coupled mass spectrometry (LC–MS); details: 2 µM
# [4] = The drug is tested on Clostridium ramosum strain: DSM1402 for biotransformation. The drug concentrations were measured before and after a 12-h incubation by liquid-chromatography-coupled mass spectrometry (LC–MS); details: thomasclavelia ramosa, 2 µM
# [5] = anaerostipes sp., 12 h, 2 µM
# Description: The drug is tested on Anaerostipes sp. strain: fecal isolate for biotransformation. The drug concentrations were measured before and after a 12-h incubation by liquid-chromatography-coupled mass spectrometry (LC–MS)
# [6] = victivallis vadensis, 12 h, 2 µM
# Description: The drug is tested on Victivallis vadensis strain: ATCC BAA-548 for biotransformation. The drug concentrations were measured before and after a 12-h incubation by liquid-chromatography-coupled mass spectrometry (LC–MS)
# [7] = The drug is tested on Eubacterium rectale strain: ATCC33656 for biotransformation. The drug concentrations were measured before and after a 12-h incubation by liquid-chromatography-coupled mass spectrometry (LC–MS); details: agathobacter rectalis, 2 µM
Compound,Bacterial Biotransformation [1],Bacterial Biotransformation [2],Bacterial Biotransformation [3],Bacterial Biotransformation [4],Bacterial Biotransformation [5],Bacterial Biotransformation [6],Bacterial Biotransformation [7]
CC1=C(CC(=O)O)c2cc(F)ccc2/C1=C\c1ccc([S+](C)[O-])cc1 (stereo not drawn),Compound NOT metabolized,Compound NOT metabolized,Compound NOT metabolized,Compound NOT metabolized,Compound NOT metabolized,Compound NOT metabolized,
CCN(CC)CCNC(C(=O)OCCC(C)C)c1ccccc1.Cl.Cl (stereo not drawn),,Compound NOT metabolized,Compound NOT metabolized,Compound NOT metabolized,Compound NOT metabolized,Compound NOT metabolized,
C#C[C@]1(OC(C)=O)CC[C@H]2[C@@H]3CCC4=C[C@@H](OC(C)=O)CC[C@@H]4[C@H]3CC[C@@]21C [ETHYNODIOL DIACETATE],Compound NOT metabolized,,Compound NOT metabolized,Compound NOT metabolized,Compound NOT metabolized,Compound NOT metabolized,Compound NOT metabolized
N=C(N)NC(=O)Cc1c(Cl)cccc1Cl [GUANFACINE],,,Compound NOT metabolized,Compound NOT metabolized,Compound NOT metabolized,Compound NOT metabolized,
C[C@]12C=CC(=O)C=C1CC[C@@H]1[C@@H]2C(=O)C[C@@]2(C)[C@H]1CC[C@]2(O)C(=O)CO [PREDNISONE],,Compound NOT metabolized,Compound NOT metabolized,Compound NOT metabolized,Compound NOT metabolized,Compound NOT metabolized,Compound NOT metabolized
CS(=O)(=O)O.OC(CCN1CCCCC1)(c1ccccc1)c1ccccc1 [PRIDINOL METHANESULFONATE],Compound NOT metabolized,,Compound NOT metabolized,Compound NOT metabolized,Compound NOT metabolized,Compound NOT metabolized,Compound NOT metabolized
CNNCc1ccc(C(=O)NC(C)C)cc1 [PROCARBAZINE],,Compound NOT metabolized,Compound NOT metabolized,Compound NOT metabolized,Compound NOT metabolized,Compound NOT metabolized,Compound NOT metabolized
CCN(CC)CCCC(C)Nc1c2ccc(Cl)cc2nc2ccc(OC)cc12 (stereo not drawn) [QUINACRINE],Compound NOT metabolized,,Compound NOT metabolized,Compound NOT metabolized,Compound NOT metabolized,Compound NOT metabolized,
CC(C)c1nc(CN(C)C(=O)N[C@H](C(=O)N[C@@H](Cc2ccccc2)C[C@H](O)[C@H](Cc2ccccc2)NC(=O)OCc2cncs2)C(C)C)cs1 [RITONAVIR],Compound NOT metabolized,Compound NOT metabolized,Compound metabolized,Compound NOT metabolized,Compound NOT metabolized,Compound NOT metabolized,
CCN(C)C(=O)Oc1cccc([C@H](C)N(C)C)c1.O=C(O)C(O)C(O)C(=O)O [RIVASTIGMINE TARTRATE],Compound NOT metabolized,,Compound NOT metabolized,Compound NOT metabolized,Compound NOT metabolized,Compound NOT metabolized,Compound NOT metabolized
CN(C)CCc1c[nH]c2ccc(Cn3cncn3)cc12.O=C(O)c1ccccc1 [RIZATRIPTAN BENZOATE],Compound NOT metabolized,Compound NOT metabolized,,Compound NOT metabolized,,Compound NOT metabolized,
CCCN(CCC)CCc1cccc2c1CC(=O)N2 [ROPINIROLE],Compound NOT metabolized,,,Compound NOT metabolized,Compound NOT metabolized,Compound NOT metabolized,
CC(C)c1nc(N(C)S(C)(=O)=O)nc(-c2ccc(F)cc2)c1/C=C/[C@@H](O)C[C@@H](O)CC(=O)[O-].CC(C)c1nc(N(C)S(C)(=O)=O)nc(-c2ccc(F)cc2)c1/C=C/[C@@H](O)C[C@@H](O)CC(=O)[O-].[Ca+2] [ROSUVASTATIN CALCIUM],,Compound NOT metabolized,,Compound NOT metabolized,Compound NOT metabolized,Compound NOT metabolized,Compound NOT metabolized
CN[C@H]1CC[C@@H](c2ccc(Cl)c(Cl)c2)c2ccccc21 [SERTRALINE],Compound NOT metabolized,Compound NOT metabolized,Compound NOT metabolized,Compound NOT metabolized,Compound NOT metabolized,,Compound NOT metabolized
O=C(O)CCC(=O)O.O=C(O[C@H]1CN2CCC1CC2)N1CCc2ccccc2[C@@H]1c1ccccc1 [SOLIFENACIN SUCCINATE],Compound NOT metabolized,,Compound NOT metabolized,Compound NOT metabolized,Compound NOT metabolized,Compound NOT metabolized,Compound NOT metabolized
CC(C)NCC(O)c1ccc(NS(C)(=O)=O)cc1 (stereo not drawn) [SOTALOL],Compound NOT metabolized,Compound NOT metabolized,Compound NOT metabolized,Compound NOT metabolized,Compound NOT metabolized,Compound NOT metabolized,
CNS(=O)(=O)Cc1ccc2[nH]cc(CCN(C)C)c2c1.O=C(O)CCC(=O)O [SUMATRIPTAN SUCCINATE],,Compound NOT metabolized,Compound NOT metabolized,Compound NOT metabolized,Compound NOT metabolized,Compound NOT metabolized,Compound NOT metabolized
CCCCCNC(=N)N/N=C/c1c[nH]c2ccc(OC)cc12.O=C(O)/C=C\C(=O)O [TEGASEROD MALEATE],,Compound NOT metabolized,Compound NOT metabolized,Compound NOT metabolized,Compound NOT metabolized,Compound NOT metabolized,Compound NOT metabolized
CC[C@@]1(O)C(=O)OCc2c1cc1n(c2=O)Cc2cc3c(CN(C)C)c(O)ccc3nc2-1 [TOPOTECAN],Compound NOT metabolized,,Compound NOT metabolized,Compound NOT metabolized,Compound NOT metabolized,Compound NOT metabolized,Compound NOT metabolized
CCOC(=O)C1=C[C@]2(CC)CCCN3CCc4c(n1c1ccccc41)[C@@H]32 [VINPOCETINE],Compound NOT metabolized,Compound NOT metabolized,Compound NOT metabolized,Compound NOT metabolized,Compound NOT metabolized,,Compound NOT metabolized
C[C@@H](c1ncncc1F)[C@](O)(Cn1cncn1)c1ccc(F)cc1F [VORICONAZOLE],Compound NOT metabolized,Compound NOT metabolized,Compound metabolized,Compound NOT metabolized,Compound NOT metabolized,,Compound NOT metabolized
CC(=O)CC(c1ccccc1)c1c(O)c2ccccc2oc1=O (stereo not drawn) [WARFARIN],Compound NOT metabolized,,Compound NOT metabolized,Compound NOT metabolized,Compound NOT metabolized,Compound NOT metabolized,Compound NOT metabolized
